Tests used:
Pichia kudriavzevii [1] = test: Antimicrobial activity against Candida krusei E28 after 48 hrs by spectrophotometry; assay type: functional; conditions: E28, 48 h
Klebsiella pneumoniae [2] = test: Antimicrobial activity against clinical isolate Klebsiella pneumoniae D 1175008 after 24 hrs; assay type: functional; conditions: D 1175008, 24 h
Nakaseomyces glabratus [3] = test: Antimicrobial activity against Candida glabrata 20/I after 48 hrs by spectrophotometry; assay type: functional
Candida tropicalis [4] = test: Antimicrobial activity against Candida tropicalis 156 after 48 hrs by spectrophotometry; assay type: functional; conditions: Candida tropicalis, 156, 48 h
Staphylococcus aureus [5] = test: Antimicrobial activity against clinical isolate methicillin-resistant Staphylococcus aureus H 599608 after 48 hrs; assay type: functional; conditions: H 599608, 48 h
[6] = tested on: Trichophyton mentagrophytes; test: Antimicrobial activity against Trichophyton mentagrophytes 445 after 120 hrs by spectrophotometry; assay type: functional; conditions: Trichophyton mentagrophytes, 445, 120 h
Staphylococcus aureus [7] = test: Antimicrobial activity against clinical isolate Staphylococcus aureus CCM 451608 after 24 hrs; assay type: functional; conditions: CCM 451608, 24 h
Pseudomonas aeruginosa [8] = test: Antimicrobial activity against clinical isolate Pseudomonas aeruginosa CCM 1961 after 120 hrs; assay type: functional; conditions: CCM 1961, 120 h
Enterococcus sp. [9] = test: Antimicrobial activity against clinical isolate Enterococcus sp. J 1436508 after 24 hrs; assay type: functional; conditions: J 1436508, 24 h
[10] = tested on: Trichophyton mentagrophytes; test: Antimicrobial activity against Trichophyton mentagrophytes 445 after 72 hrs by spectrophotometry; assay type: functional; conditions: Trichophyton mentagrophytes, 445, 72 h
Klebsiella pneumoniae [11] = test: Antimicrobial activity against clinical isolate Klebsiella pneumoniae D 1175008 after 48 hrs; assay type: functional; conditions: D 1175008, 48 h
Aspergillus fumigatus [12] = test: Antimicrobial activity against Aspergillus fumigatus 231 after 48 hrs by spectrophotometry; assay type: functional; conditions: Aspergillus fumigatus, 231, 48 h
Candida albicans [13] = test: Antimicrobial activity against Candida albicans ATCC 44859 after 24 hrs by spectrophotometry; assay type: functional; conditions: ATCC 44859, 24 h
Aspergillus fumigatus [14] = test: Antimicrobial activity against Aspergillus fumigatus 231 after 24 hrs by spectrophotometry; assay type: functional; conditions: Aspergillus fumigatus, 231, 24 h
[15] = Cytotoxicity against CHOK1 cells after 24 hrs by MTT assay; assay type: cell-based; conditions: Cricetulus griseus, CHO-K1, 24 h
Trichosporon asahii [16] = test: Antimicrobial activity against Trichosporon asahii 1188 after 24 hrs by spectrophotometry; assay type: functional; conditions: Trichosporon asahii, 1188, 24 h
Staphylococcus aureus [17] = test: Antimicrobial activity against clinical isolate Staphylococcus aureus CCM 451608 after 48 hrs; assay type: functional; conditions: CCM 451608, 48 h
[18] = tested on: Staphylococcus epidermidis; test: Antimicrobial activity against clinical isolate Staphylococcus epidermidis H 696608 after 24 hrs; assay type: functional; conditions: H 696608, 24 h
[19] = tested on: Staphylococcus epidermidis; test: Antimicrobial activity against clinical isolate Staphylococcus epidermidis H 696608 after 48 hrs; assay type: functional; conditions: H 696608, 48 h
Lichtheimia corymbifera [20] = test: Antimicrobial activity against Absidia corymbifera 272 after 24 hrs by spectrophotometry; assay type: functional; conditions: Lichtheimia corymbifera, 272, 24 h
Candida albicans [21] = test: Antimicrobial activity against Candida albicans ATCC 44859 after 48 hrs by spectrophotometry; assay type: functional; conditions: ATCC 44859, 48 h
Lichtheimia corymbifera [22] = test: Antimicrobial activity against Absidia corymbifera 272 after 48 hrs by spectrophotometry; assay type: functional; conditions: Lichtheimia corymbifera, 272, 48 h
Trichosporon asahii [23] = test: Antimicrobial activity against Trichosporon asahii 1188 after 48 hrs by spectrophotometry; assay type: functional; conditions: Trichosporon asahii, 1188, 48 h
Klebsiella pneumoniae [24] = test: Antimicrobial activity against clinical isolate ESBL-Klebsiella pneumoniae J 1436808 after 48 hrs; assay type: functional; conditions: J 1436808, 48 h
Staphylococcus aureus [25] = test: Antimicrobial activity against clinical isolate methicillin-resistant Staphylococcus aureus H 599608 after 24 hrs; assay type: functional; conditions: H 599608, 24 h
Pichia kudriavzevii [26] = test: Antimicrobial activity against Candida krusei E28 after 24 hrs by spectrophotometry; assay type: functional; conditions: E28, 24 h
Klebsiella pneumoniae [27] = test: Antimicrobial activity against clinical isolate ESBL-Klebsiella pneumoniae J 1436808 after 24 hrs; assay type: functional; conditions: J 1436808, 24 h
Candida tropicalis [28] = test: Antimicrobial activity against Candida tropicalis 156 after 24 hrs by spectrophotometry; assay type: functional; conditions: Candida tropicalis, 156, 24 h
Pseudomonas aeruginosa [29] = test: Antimicrobial activity against clinical isolate Pseudomonas aeruginosa CCM 1961 after 72 hrs; assay type: functional; conditions: CCM 1961, 72 h
Escherichia coli [30] = test: Antimicrobial activity against clinical isolate Escherichia coli CCM 4517 after 24 hrs; assay type: functional; conditions: CCM 4517, 24 h
Nakaseomyces glabratus [31] = test: Antimicrobial activity against Candida glabrata 20/I after 24 hrs by spectrophotometry; assay type: functional
Enterococcus sp. [32] = test: Antimicrobial activity against clinical isolate Enterococcus sp. J 1436508 after 48 hrs; assay type: functional; conditions: J 1436508, 48 h
Escherichia coli [33] = test: Antimicrobial activity against clinical isolate Escherichia coli CCM 4517 after 48 hrs; assay type: functional; conditions: CCM 4517, 48 h

## CCCCCCCCCC[n+]1ccc2c(O)cccc2c1
Pichia kudriavzevii [1]
  MFC: 31 µM
  MIC: 31 µM
Klebsiella pneumoniae [2]
  MIC: 63 µM
Nakaseomyces glabratus [3]
  MFC: 63 µM
  MIC: 16 µM
Candida tropicalis [4]
  MFC: 500 µM
  MIC: 125 µM
Staphylococcus aureus [5]
  MBC: 16 µM
  MIC: 31 µM
[6]
  MFC: 125 µM
  MIC: 31 µM
Staphylococcus aureus [7]
  MIC: 16 µM
Pseudomonas aeruginosa [8]
  MBC: > 500 µM
  MIC: 250 µM
Enterococcus sp. [9]
  MIC: 500 µM
[10]
  MIC: 31 µM
Klebsiella pneumoniae [11]
  MBC: 63 µM
  MIC: 63 µM
Aspergillus fumigatus [12]
  MFC: > 500 µM
  MIC: > 500 µM
Candida albicans [13]
  MIC: 250 µM
Aspergillus fumigatus [14]
  MIC: > 500 µM
[15]
  IC50: 92 µM
Trichosporon asahii [16]
  MIC: 250 µM
Staphylococcus aureus [17]
  MBC: 63 µM
  MIC: 16 µM
[18]
  MIC: 250 µM
[19]
  MBC: 250 µM
  MIC: 250 µM
Lichtheimia corymbifera [20]
  MIC: > 500 µM
Candida albicans [21]
  MFC: 250 µM
  MIC: 250 µM
Lichtheimia corymbifera [22]
  MFC: > 500 µM
  MIC: > 500 µM
Trichosporon asahii [23]
  MFC: 500 µM
  MIC: 250 µM
Klebsiella pneumoniae [24]
  MBC: 500 µM
  MIC: 500 µM
Staphylococcus aureus [25]
  MIC: 31 µM
Pichia kudriavzevii [26]
  MIC: 31 µM
Klebsiella pneumoniae [27]
  MIC: 500 µM
Candida tropicalis [28]
  MIC: 125 µM
Pseudomonas aeruginosa [29]
  MIC: 250 µM
Escherichia coli [30]
  MIC: 63 µM
Nakaseomyces glabratus [31]
  MIC: 16 µM
Enterococcus sp. [32]
  MBC: 500 µM
  MIC: 500 µM
Escherichia coli [33]
  MBC: 63 µM
  MIC: 63 µM

— ChEMBL document CHEMBL3751693, “Synthesis, antimicrobial evaluation and molecular modeling of 5-hydroxyisoquinolinium salt series; the effect of the hydroxyl moiety” (Bioorg Med Chem, 2016)
